Numbered stars: 1 amine (or outer) side, 2 acyl side, 3 side chain; on linkers, the order of the positions; unused ones are H or OH. Square brackets hold non-standard residues; d marks the D form. Peptide text beside a SMILES is read from it. * marks the point of attachment. NMeI = CC[CH](C)[CH](NC)C(=O)O; X2 = CCC(C)C(O[*:1])C(=O)[*:2]; NMeV = CN[CH](C(=O)O)C(C)C; X1 = C#CCCCC(O)C(C)C(=O)*
Columns and labels:
[1] = test system: MDA-MB-231 cells; assay: MTT cytotoxicity assay in MDA-MB-231 (TNBC) cells; format: cell-based, human; settings: for cytotoxicity / effect on viability in words: TNBC (MDA-MB-231) cells, MTT
Procedure: (§1) The human triple-negative breast cancer cell line MDA-MB-231 was obtained from ATCC and was maintained in DMEM:F-12 (1:1) (Life Technologies, Carlsbad, CA, USA), 10% Fetal Bovine Serum (Atlanta Biologicals, Atlanta, GA, USA), and 1% Penicillin/Streptomycin (Sigma, St. Louis, MO, USA). The estrogen-positive MCF-7 cell line was also obtained from ATCC and was maintained in 1640 RPMI media (Life technologies), 10% FBS, and 1% Penicillin/Streptomycin. HEK-293 cells were also obtained from ATCC and maintained in Dulbecco’s Modification of Eagle’s Medium (DMEM), 10% Fetal Bovine Serum (FBS), and 1% Penicillin/Streptomycin (Pen/Strep).
(§2) Two rounds of toxicity experimentation were completed. First, MDA-MB-231 and MCF-7 cells were plated at a density of 5 × 10^3 cells per well in a 96-well plate. Cells were allowed to attach overnight. The cells were treated with depsipeptides or vehicle for 72 h with 5% FBS stimulation. DMSO was used as a vehicle control. After treatment, 10 μ L MTT (Sigma) was added to each well (0.5 mg/mL final concentration), and the plates were incubated for 3 h (5% CO2 and 37 °C). The medium was removed and the MTT-formazan crystals were dissolved with 100 μ L DMSO per well. The absorbance was measured at 570 nm with a VICTOR^3 1420 multilabel counter (Perkin Elmer, Springfield, IL, USA). Three wells were analyzed for each condition, and wells containing medium-MTT only (no cells) and medium-MTT (DMSO + 5% FBS) were used as controls. Results were normalized to the DMSO + 5% FBS group.

[2] = test system: MCF-7 cells; assay: MTT cytotoxicity assay in MCF-7 (estrogen positive) cells; format: cell-based, human; settings: ER-positive MCF-7 cells, 72 h, listed as Veraguamide O
Procedure: as §1
as §2, with “The medium was removed and the MTT-formazan crystals were dissolved with 100 μ L DMSO per well.” left out, “Results were normalized to the DMSO + 5% FBS group.” left out

## C#CCCCC(O)C(C)C(=O)NC(C(=O)N(C)C(C(=O)OC(C(=O)N1CCCC1C(=O)N(C)C(C(=O)O)C(C)CC)C(C)CC)C(C)C)C(C)CC (stereo not drawn) [Veraguamide O (1)] (X1-I[NMeV][X2]P[NMeI]-OH; configuration not given here)
[1]; MDA-MB-231 (TNBC), 10 μM, microscopy
  cell death observed microscopically: appeared to induce cell death
[1]; MDA-MB-231, MTT, 72 h, 0.14 µM, % of DMSO + 5% FBS control
  viability: 86%
[1]; MDA-MB-231 compared to MCF-7, MTT
  selectivity for TNBC over estrogen-positive cells, in words: selective inhibitory effects against TNBC (MDA-MB-231) cells compared to estrogen-positive (MCF-7) breast cancer cells
[1]; 72 h
  cytotoxicity / effect on viability in words: decreased viability in MDA-MB-231 cells in a concentration-dependent manner
[1]; 72 h, listed as veraguamide O
  cytotoxicity / effect on viability in words: similar, albeit minor, levels of toxicity
[2]
  cytotoxicity / effect on viability in words: no cytotoxicity
